Reference: patent US5789531A, “Peptide-based inhibitors of HIV replication” (Allex Biopharmaceuticals, Inc., priority 1995, dated 1998)
“And” between values parts separate entries of the source, which are not always exact repeats. Equal entries are not always repeated. Where two headings read alike, the source gives them in different places.

How the values were obtained:
[1] = test system: variant of TAR (SEQ ID NO:14) which does not bind tat; assay: RNA gel mobility shift assay with non-functional TAR variant (specificity); assay type: binding, HIV; conditions: functional TAR fragment vs non-functional TAR variant
Experimental: (§1) TAR-binding affinity of the oligopeptides relative to HIV tat(1-86) and relative to tat fragments representing the tat basic domain, was evaluated by RNA gel mobility shift assay using as ligand a truncated functional form of TAR RNA having the sequence (SEQ ID NO:13) shown below.
Synthesis of the TAR fragment and its variant analogue was accomplished as described by Roy et al. in Genes and Development, 1990, 4:1365. The TAR-binding assay was also performed in the manner reported by Roy et al, supra, which is incorporated herein by reference.

[2] = test system: HIV (strain NL4-3); assay type: cell-based; conditions: for PH Titers: HuT78 cells, 5 uM pretreatment, 10 uM after infection
Excerpt: Controls used water in place of peptide.

[3] = test system: truncated functional form of TAR RNA (SEQ ID NO:13); assay: RNA gel mobility shift TAR-binding assay; parameters: species or system HIV; conditions: relative to tat (1-86) and the oligopeptide representing the tat basic domain
Experimental: This assay generally involves the incubation of a selected oligopeptide with gel-purified, radio-labelled TAR RNA, or tat-binding fragment of TAR RNA, that has been produced either by direct synthesis or through transcription of a corresponding DNA template. Samples are loaded onto non-denaturing polyacrylamide gel and subjected to electrophoresis, and then migration of labelled RNA through the gel is visualized on gel-exposed, X-ray film. Oligopeptides which bind TAR are identified in this assay by their characteristic, retarded migration on the gel, relative to TAR RNA to which no oligopeptide has bound. In this mobility shift assay, oligopeptides having an "enhanced" affinity for binding TAR RNA will resolve on the gel as bands which, in addition to displaying the retarded migration pattern characteristic of TAR-binding oligopeptides, will also appear with greater intensity and/or size than a band containing TAR RNA bound to tat (1-86).
as §1
Synthesis of the TAR fragment and its variant analogue was accomplished as described by Roy et al. in Genes and Development, 1990, 4:1365. […]

[4] = test system: HuT78 cells; assay: Host cell replication in presence of peptide
[5] = test system: yeast tRNA; assay: TAR binding compared with yeast tRNA binding
[6] = test system: tat; conditions: Green et al, Cell 1989, 58:215; cited from earlier work

For `CC(=O)N[C@H](CCCNC(=N)N)C(=O)N[C@H](CCCNC(=N)N)C(=O)N[C@H](CCCNC(=N)N)C(=O)N[C@H](CCCNC(=N)N)C(=O)N[C@H](CCCNC(=N)N)C(=O)N[C@H](CCCNC(=N)N)C(=O)N[C@H](CCCNC(=N)N)C(=O)N[C@H](CCCNC(=N)N)C(=O)N[C@H](CCCNC(=N)N)C(N)=O` [4C, acetyl-[D-Arg]9 --NH2], the “specificity for binding to the functional TAR fragment relative to the TAR variant” value [1] was “specificity comparable to the wild type basic domain”, the “PH Titers” value ([2]; 7 Day Pretreatment, Day 4 after infection, listed as 4C1) was 168.4 pg/mL and 98.08 pg/mL and the “PH Titers” value ([2]; 7 Day Pretreatment, Day 4 after infection, listed as 4C2) was 131.5 pg/mL and 93.76 pg/mL. The “PH Titers” value ([2]; 14 Day Pretreatment, Day 4 after infection, listed as 4C1) was 152.5 pg/mL, the “PH Titers” value ([2]; 14 Day Pretreatment, Day 4 after infection, listed as 4C2) was 129.0 pg/mL and the “PH Titers” value ([2]; 14 Day Pretreatment, Day 7 after infection, listed as 4C1) was 175.1 pg/mL. The “PH Titers” value ([2]; 14 Day Pretreatment, Day 7 after infection, listed as 4C2) was 133.6 pg/mL, the “inhibition of viral replication, as measured by p24 assay” value ([2]; at the concentration tested (5 uM), FIG. 1) was ≥ 95% and the TAR-binding affinity [3] was “TAR-binding affinity comparable to the basic domain of wild type tat”. For the same molecule, the “inhibition of host cell replication” value ([4]; 5 uM) was “no apparent inhibition of host cell replication”, the “effect on cell replication” value ([4]; 100 uM, separate experiments) was “no significant detrimental effect on cell replication” and the “specificity of TAR binding compared with yeast tRNA binding” value [5] was “specificity of binding has also been confirmed”.
For `CC(=O)N[C@H](CCCNC(=N)N)C(=O)N[C@H](CCCCN)C(=O)N[C@H](CCCCN)C(=O)N[C@H](CCCNC(=N)N)C(=O)N[C@H](CCCNC(=N)N)C(=O)N[C@H](CCC(N)=O)C(=O)N[C@H](CCCNC(=N)N)C(=O)N[C@H](CCCNC(=N)N)C(=O)N[C@H](CCCNC(=N)N)C(N)=O` [4G, acetyl-[D-(Arg--Lys--Lys--Arg--Arg--Gln--Arg--Arg--Arg)]--NH2], the “HIV inhibition / resistance to viral infection” value ([2]; 5 uM concentration) was “positive effects on HIV inhibition”, the “PH Titers” value ([2]; 7 Day Pretreatment, Day 4 after infection, listed as 4G1) was 312.1 pg/mL and the “PH Titers” value ([2]; 7 Day Pretreatment, Day 4 after infection, listed as 4G2) was 336.1 pg/mL. For the same molecule, the “PH Titers” value ([2]; 7 Day Pretreatment, Day 7 after infection, listed as 4G1) was 371.5 pg/mL, the “PH Titers” value ([2]; 7 Day Pretreatment, Day 7 after infection, listed as 4G2) was 446.8 pg/mL and the “PH Titers” value ([2]; 24 Hrs Pretreatment, Day 4 after infection, listed as 4G1) was 340.9 pg/mL. For the same molecule, the “PH Titers” value ([2]; 24 Hrs Pretreatment, Day 4 after infection, listed as 4G2) was 356.9 pg/mL, the “PH Titers” value ([2]; 24 Hrs Pretreatment, Day 7 after infection, listed as 4G1) was 721.1 pg/mL and the “PH Titers” value ([2]; 24 Hrs Pretreatment, Day 7 after infection, listed as 4G2) was 851.8 pg/mL.
For “Arg--Lys--Lys--Arg--Arg--Gln--Arg--Arg--Arg”, the tat antagonist activity [6] is given as “Weak tat antagonist activity”.
